In patent publication EP1147134B1, “NOVEL POTASSIUM CHANNELS AND GENES ENCODING THESE POTASSIUM CHANNELS” (NEUROSEARCH A/S, priority 1999, dated 2000):

Legend:
KCNQ2/KCNQ3 channels = settings: concentration of 200 µM; cited from earlier work
KCNQ3/KCNQ4 = target: T1, KCNQ3/KCNQ4 (Homo sapiens, UniProt O43525+P56696); test: Two-electrode voltage clamp of Xenopus oocytes co-injected with KCNQ3 and KCNQ4 cRNA; assay type: cell-based; settings: 200 µM Linopirdine in ND98, currents measured at +40 mV, cRNAs 1:1
T1 construct: A complete cDNA was assembled and cloned into the oocyte expression vector PTLN; expressed in transfected cells; host or cells: Xenopus oocytes co-injected with KCNQ3 and KCNQ4 cRNA
T1 sequence (P56696 1-695): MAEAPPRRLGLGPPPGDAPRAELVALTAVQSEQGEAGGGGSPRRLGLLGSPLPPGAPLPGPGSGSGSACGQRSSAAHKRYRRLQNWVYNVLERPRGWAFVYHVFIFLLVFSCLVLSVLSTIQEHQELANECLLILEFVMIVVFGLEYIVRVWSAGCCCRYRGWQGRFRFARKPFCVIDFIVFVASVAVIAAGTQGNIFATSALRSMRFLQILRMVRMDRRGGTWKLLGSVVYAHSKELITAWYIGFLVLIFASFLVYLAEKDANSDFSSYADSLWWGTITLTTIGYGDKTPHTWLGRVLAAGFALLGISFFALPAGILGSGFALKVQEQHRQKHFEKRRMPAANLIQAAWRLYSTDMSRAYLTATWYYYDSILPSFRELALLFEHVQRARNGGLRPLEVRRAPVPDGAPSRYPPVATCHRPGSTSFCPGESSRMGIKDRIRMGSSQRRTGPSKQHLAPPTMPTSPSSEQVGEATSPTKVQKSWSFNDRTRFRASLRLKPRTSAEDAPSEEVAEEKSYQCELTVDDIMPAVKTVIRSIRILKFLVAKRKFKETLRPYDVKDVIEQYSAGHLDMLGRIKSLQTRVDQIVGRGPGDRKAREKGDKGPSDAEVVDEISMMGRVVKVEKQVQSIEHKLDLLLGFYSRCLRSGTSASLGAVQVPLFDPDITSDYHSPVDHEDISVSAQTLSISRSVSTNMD
T1 sequence (O43525 1-872): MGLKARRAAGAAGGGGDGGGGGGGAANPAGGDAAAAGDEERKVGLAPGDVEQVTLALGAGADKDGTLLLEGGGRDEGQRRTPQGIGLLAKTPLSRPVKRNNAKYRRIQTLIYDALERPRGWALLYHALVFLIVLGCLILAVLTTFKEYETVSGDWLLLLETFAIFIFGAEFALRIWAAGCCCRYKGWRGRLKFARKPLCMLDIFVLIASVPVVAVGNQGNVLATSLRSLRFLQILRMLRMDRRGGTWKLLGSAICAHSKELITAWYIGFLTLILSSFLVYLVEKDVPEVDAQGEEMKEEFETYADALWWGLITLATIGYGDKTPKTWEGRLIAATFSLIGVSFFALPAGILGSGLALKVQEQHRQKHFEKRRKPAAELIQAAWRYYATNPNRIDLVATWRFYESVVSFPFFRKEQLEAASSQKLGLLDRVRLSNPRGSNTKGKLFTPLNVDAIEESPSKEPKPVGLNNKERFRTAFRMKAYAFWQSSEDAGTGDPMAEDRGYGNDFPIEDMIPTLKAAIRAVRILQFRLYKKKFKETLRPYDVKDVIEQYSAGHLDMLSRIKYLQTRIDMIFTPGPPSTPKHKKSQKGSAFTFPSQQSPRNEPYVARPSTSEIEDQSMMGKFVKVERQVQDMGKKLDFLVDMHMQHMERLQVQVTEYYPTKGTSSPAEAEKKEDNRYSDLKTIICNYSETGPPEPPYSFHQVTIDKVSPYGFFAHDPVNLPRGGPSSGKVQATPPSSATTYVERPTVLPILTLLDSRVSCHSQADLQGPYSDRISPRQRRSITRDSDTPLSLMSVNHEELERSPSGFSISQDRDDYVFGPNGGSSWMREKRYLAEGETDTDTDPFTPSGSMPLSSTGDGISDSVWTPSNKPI
Experimental: (§1) KCNQ4 was expressed in Xenopus oocytes and its activity was investigated by two-electrode voltage clamping.
(§2) After linearization of the KCNQ4-containing PTLN vector with Hpal, capped cRNA was transcribed in vitro using the mMessage mMachine cRNA synthesis kit (Ambion). Usually 5 - 15 ng of cRNA were injected into Xenopus oocytes previously isolated by manual defolliculation and short collagenase treatment. In co-expression experiments cRNAs were injected at a 1:1 ratio. Oocytes were kept at 17°C in modified Barth's solution (90 mM NaCl, 1 mM KCl, 0.41 mM CaCl2, 0.33 mM Ca(NO3)2, 0.82 mM MgSO4, 10 mM HEPES, 100 U penicillin-100 µg streptomycin/ml, pH 7.6).
(§3) Standard two-electrode voltage-clamp measurements were performed at room temperature 2-4 days after injection using a Turbotec 05 amplifier (npi instruments, Tamm, Germany) and pClamp 5.5 software (Axon Instruments). Currents were usually recorded in ND98 solution (see Table 2). Solutions for Na^+ / K^+ replacement experiments were prepared from an appropriate mixture of solution KD100 (100 mM KCl) and ND100 (100 mM NaCl) to yield the stated concentrations of Na^+ and K^+. Linopirdine (RBI, Natick, MA) was prepared as a 100 mM stock solution in DMSO and added to a final concentration of 200 µM to ND98.

KCNQ4 = target: T2, KCNQ4 (Homo sapiens, UniProt P56696); test: Two-electrode voltage clamp of KCNQ4 currents in Xenopus oocytes; assay type: cell-based
T2 construct: A complete cDNA was assembled and cloned into the oocyte expression vector PTLN; expressed in transfected cells; host or cells: Xenopus oocytes injected with capped cRNA from the PTLN vector
T2 sequence (P56696 1-695): T1 sequence (P56696 1-695)
Experimental: as §1, §2, §3

inhibition with KCNQ3/KCNQ4 co-expression (KCNQ3/KCNQ4): ≈ 75%
inhibition at 200 µM (KCNQ4; 200 µM Linopirdine in ND98, currents measured at +40 mV, Xenopus oocytes): ~30%
time until steady-state inhibition was reached, KCNQ4 currents (KCNQ4; upon addition of 200 µM Linopirdine): ~ 1 min
SMILES: O=C1N(c2ccccc2)c2ccccc2C1(Cc1ccncc1)Cc1ccncc1 [Linopirdine, 1,3-dihydro-1-phenyl-3,3-bis(4-pyridylmethyl)-2H-indol-2-one]
inhibition of KCNQ2/KCNQ3 channels (KCNQ2/KCNQ3 channels): nearly completely inhibits
